Source: the supplement of paper PMC10307832

What was measured:
Assay in all cases: relative viability (nuclei count vs DMSO), 5 days (fraction); higher = more cells survive
Everolimus = compound: CO[C@H]1C[C@@H]2CC[C@@H](C)[C@@](O)(O2)C(=O)C(=O)N2CCCC[C@H]2C(=O)O[C@H]([C@H](C)C[C@@H]2CC[C@@H](OCCO)[C@H](OC)C2)CC(=O)[C@H](C)/C=C(\C)[C@@H](O)[C@@H](OC)C(=O)[C@H](C)C[C@H](C)/C=C/C=C/C=C/1C [Everolimus]
In short: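 Vehicle-anchored 1536-well plates of lung cancer cell lines, held overnight at 37 °C, were pinned with five library-drug doses (not always all listed) spaced by √10. No medium change followed over the next 5 days, after which the cells were fixed, permeabilised and Hoechst-stained together and imaged at 4×. Nuclei were counted with MetaXpress, and viability is treated-well nuclei over vehicle-well nuclei, taken as a median across plates. Plates passed with control CV below 25% and at least one doubling.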

Everolimus + Trametinib = compound: CO[C@H]1C[C@@H]2CC[C@@H](C)[C@@](O)(O2)C(=O)C(=O)N2CCCC[C@H]2C(=O)O[C@H]([C@H](C)C[C@@H]2CC[C@@H](OCCO)[C@H](OC)C2)CC(=O)[C@H](C)/C=C(\C)[C@@H](O)[C@@H](OC)C(=O)[C@H](C)C[C@H](C)/C=C/C=C/C=C/1C [Everolimus] + CC(=O)Nc1cccc(-n2c(=O)n(C3CC3)c(=O)c3c(Nc4ccc(I)cc4F)n(C)c(=O)c(C)c32)c1 [Trametinib] (partner 0.02 µM)
In short: (§1)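 Relative viability equals treated-well nuclei counts divided by vehicle-well nuclei counts. Counts came from 4× images of lung cancer cell lines grown in 1536-well plates for 5 days after pin-tool dosing on the day after seeding. Dosing used one drug alone or a fixed anchor-drug dose plus five library-drug doses (not always all listed) in √10 steps, and values are medians of duplicate plates.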

Everolimus + Phenformin = compound: CO[C@H]1C[C@@H]2CC[C@@H](C)[C@@](O)(O2)C(=O)C(=O)N2CCCC[C@H]2C(=O)O[C@H]([C@H](C)C[C@@H]2CC[C@@H](OCCO)[C@H](OC)C2)CC(=O)[C@H](C)/C=C(\C)[C@@H](O)[C@@H](OC)C(=O)[C@H](C)C[C@H](C)/C=C/C=C/C=C/1C [Everolimus] + N=C(N)NC(=N)NCCc1ccccc1 [Phenformin] (partner 250 µM)
In short: as §1

Everolimus + OSI-027 = compound: CO[C@H]1C[C@@H]2CC[C@@H](C)[C@@](O)(O2)C(=O)C(=O)N2CCCC[C@H]2C(=O)O[C@H]([C@H](C)C[C@@H]2CC[C@@H](OCCO)[C@H](OC)C2)CC(=O)[C@H](C)/C=C(\C)[C@@H](O)[C@@H](OC)C(=O)[C@H](C)C[C@H](C)/C=C/C=C/C=C/1C [Everolimus] + COc1cccc2cc(-c3nc([C@H]4CC[C@H](C(=O)O)CC4)n4ncnc(N)c34)[nH]c12 [OSI-027] (partner 0.5 µM)
In short: as §1

Cell Line | relative viability (Everolimus; 0.01 µM) | relative viability (Everolimus; 0.03162 µM) | relative viability (Everolimus; 0.1 µM) | relative viability (Everolimus; 0.3162 µM) | relative viability (Everolimus; 1 µM) | relative viability (Everolimus + Trametinib; first compound 0.01 µM) | relative viability (Everolimus + Trametinib; first compound 0.03162 µM) | relative viability (Everolimus + Trametinib; first compound 0.1 µM) | relative viability (Everolimus + Trametinib; first compound 0.3162 µM) | relative viability (Everolimus + Trametinib; first compound 1 µM) | relative viability (Everolimus + Phenformin; first compound 0.01 µM) | relative viability (Everolimus + Phenformin; first compound 0.03162 µM) | relative viability (Everolimus + Phenformin; first compound 0.1 µM) | relative viability (Everolimus + Phenformin; first compound 0.3162 µM) | relative viability (Everolimus + Phenformin; first compound 1 µM) | relative viability (Everolimus + OSI-027; first compound 0.01 µM) | relative viability (Everolimus + OSI-027; first compound 0.03162 µM) | relative viability (Everolimus + OSI-027; first compound 0.1 µM) | relative viability (Everolimus + OSI-027; first compound 0.3162 µM) | relative viability (Everolimus + OSI-027; first compound 1 µM)
NCI-H838 | 0.603 | 0.561 | 0.468 | 0.516 | 0.51 | 0.288 | 0.267 | 0.278 | 0.263 | 0.28 | 0.331 | 0.355 | 0.267 | 0.313 | 0.363 | 0.262 | 0.252 | 0.233 | 0.259 | 0.334
NCI-H1355 | 0.666 | 0.537 | 0.552 | 0.628 | 0.48 | 0.244 | 0.24 | 0.215 | 0.263 | 0.244 | 0.394 | 0.364 | 0.335 | 0.332 | 0.345 | 0.281 | 0.258 | 0.231 | 0.299 | 0.241
NCI-H1395 | 0.765 | 0.627 | 0.683 | 0.647 | 0.727 | 0.724 | 0.641 | 0.657 | 0.694 | 0.652 | 0.386 | 0.398 | 0.425 | 0.401 | 0.371 | 0.596 | 0.555 | 0.544 | 0.482 | 0.54
NCI-H1437 | 0.875 | 0.795 | 0.767 | 0.738 | 0.621 | 0.383 | 0.348 | 0.374 | 0.313 | 0.249 | 0.557 | 0.282 | 0.293 | 0.299 | 0.29 | 0.379 | 0.363 | 0.344 | 0.365 | 0.487
NCI-H1650 | 0.761 | 0.879 | 0.828 | 0.85 | 0.868 | 0.48 | 0.489 | 0.437 | 0.481 | 0.58 | 0.36 | 0.372 | 0.46 | 0.392 | 0.417 | 0.489 | 0.444 | 0.468 | 0.484 | 0.574
NCI-H1651 | 0.749 | 0.71 | 0.691 | 0.663 | 0.645 | 0.774 | 0.657 | 0.605 | 0.592 | 0.538 | 0.284 | 0.297 | 0.255 | 0.265 | 0.4 | 0.411 | 0.439 | 0.384 | 0.41 | 0.58
NCI-H1666 | 0.952 | 0.858 | 0.853 | 0.886 | 0.898 | 0.832 | 0.911 | 0.867 | 0.851 | 0.705 | 0.555 | 0.575 | 0.617 | 0.577 | 0.539 | 0.722 | 0.725 | 0.719 | 0.811 | 0.722
NCI-H1734 | 0.648 | 0.692 | 0.602 | 0.615 | 0.742 | 0.502 | 0.473 | 0.404 | 0.453 | 0.46 | 0.306 | 0.324 | 0.249 | 0.31 | 0.35 | 0.408 | 0.411 | 0.365 | 0.417 | 0.423
NCI-H1755 | 0.919 | 0.865 | 0.749 | 0.819 | 0.816 | 0.666 | 0.579 | 0.553 | 0.545 | 0.453 | 0.583 | 0.639 | 0.476 | 0.547 | 0.487 | 0.655 | 0.63 | 0.573 | 0.647 | 0.593
NCI-H1792 | 0.478 | 0.336 | 0.363 | 0.349 | 0.379 | 0.196 | 0.251 | 0.215 | 0.164 | 0.16 | 0.154 | 0.129 | 0.162 | 0.129 | 0.0809 | 0.646 | 0.489 | 0.427 | 0.421 | 0.362
NCI-H1793 | 0.435 | 0.305 | 0.351 | 0.376 | 0.299 | 0.315 | 0.247 | 0.247 | 0.312 | 0.228 | 0.294 | 0.242 | 0.329 | 0.313 | 0.29 | 0.236 | 0.189 | 0.185 | 0.21 | 0.185
NCI-H1915 | 0.955 | 0.863 | 0.82 | 0.875 | 0.866 | 0.233 | 0.197 | 0.204 | 0.228 | 0.191 | 0.384 | 0.372 | 0.34 | 0.349 | 0.432 | 0.531 | 0.516 | 0.45 | 0.512 | 0.49
NCI-H1944 | 0.636 | 0.687 | 0.575 | 0.789 | 0.626 | 0.311 | 0.303 | 0.341 | 0.312 | 0.298 | 0.183 | 0.19 | 0.165 | 0.208 | 0.222 | 0.365 | 0.305 | 0.294 | 0.358 | 0.326
NCI-H1975 | 0.73 | 0.798 | 0.793 | 0.734 | 0.677 | 0.389 | 0.373 | 0.287 | 0.276 | 0.226 | 0.378 | 0.383 | 0.387 | 0.367 | 0.323 | 0.496 | 0.498 | 0.45 | 0.473 | 0.436
